Source: patent publication US12383631B2, “Immune antigen specific IL-18 immunocytokines and uses thereof” (Bright Peak Therapeutics AG, priority 2022, dated 2025)

Experiments:
[1] = tested on: PD-1 positive (transduced) KG-1 cells; test: IFN gamma secretion assay in PD-1 transduced KG-1 cells (Example 11); format: cell-based, human; conditions: IFNγ secretion, PD-1 transduced KG-1 cells, 20-24 h
Method: (§1) The KG-1 cell line was used to generate a PD-1 expressing cell line and furthermore, to measure IFNγ release upon incubation with TL-18 variants and corresponding TL-18 immunocytokines.
PD-1 expressing cell line generation: Briefly, KG-1 cells were transduced using lentiviral particles carrying the human PD-1 gene (PDCD1 NM_005018; Origene, CAT #: RC210364L3V) at a MOI (Multiplicity of Infection) of 30. Spinfection was performed at 1260 g during 90 min at 37° C. in the presence of 5 μg/ml of Polybrene and 10 mM of HEPES in complete culture media (RPMI, 10% FBS, 1% L-Glutamine). Five days after transduction, puromycin at a final concentration of 1 μg/ml was added to select for PD-1 positive cells. For culture maintenance, puromycin concentration was decreased to 0.5 μg/ml. Stable and homogenous expression of PD-1 was verified by surface staining (BD Pharmingen, #557860).
(§2) IFNγ release was assessed in PD-1 positive (transduced) KG-1 cells, as well as in the parental PD-1 negative cells. 0.5×10^5 cells were seeded into a 96-well U-bottom plate in culture media (RPMI, 10% FBS, […]) and stimulated with IL-18 variants/ICs for 20-24 h. The test items were diluted to 100 nM in culture medium, followed by 7 10-fold serial dilutions. The lowest concentration assessed was […]. After incubation, IFNγ release was measured using the LEGENDplex custom human mix and match KIT (Biolegend LEGENDplex™ Human IFN-γ Capture Bead B5, 13×#740942, LEGENDplex™ P 1 Essential Immune Response Panel Detection Abs, #740931, LEGENDplex™ Buffer Set A #740368). To this end, cell culture supernatant was collected and diluted 1:1 with Assay Buffer. Fluorescence measurements were done with a Quanteon Flow Cytometer from Acea Biosciences. For analysis, MFI values (median fluorescence intensity) were exported and plotted against concentrations used. The EC50 values (half maximal effective concentration) were calculated based on a variable slope and four parameter analysis using GraphPad PRISM software version 9.

[2] = biological target: T1, human IL-18 binding protein isoform a (IL-18BPa) (Homo sapiens, UniProt O95998); test: Cellular IL-18 Binding protein resistance assay in NK-92 cells (Example 13); format: cell-based; conditions: NK92 cells, IL-18 analyte 1 nM final, IL-18BPa titrated, 1 ng/ml IL-12; read-out: IC50 IL-18BP-mediated inhibition of IFNγ secretion
T1 sequence (O95998 31-194): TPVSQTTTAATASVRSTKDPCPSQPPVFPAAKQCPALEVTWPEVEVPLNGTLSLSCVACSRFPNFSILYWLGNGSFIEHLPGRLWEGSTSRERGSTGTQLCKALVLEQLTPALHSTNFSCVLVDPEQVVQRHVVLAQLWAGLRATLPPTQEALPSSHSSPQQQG
Method: The NK cell line NK-92 derived from a patient with lymphoma (ATCC, Cat #CRL-2407) was cultured in aMEM medium supplemented with 20% FCS-Glutamax, 25 μM B-mercaptoEthanol, and 100 IU/ml of recombinant Human Interleukin-2 (TL-2). On the day of experiment, cells were harvested and washed with aMEM medium without IL-2. After counting, cells were seeded at 100 000 cells/well in a 384 well titer plate and incubated at 37° C./5% CO2. Sixteen 2-fold serial dilutions of Fc fused human IL-18 binding protein isoform a (IL-18BPa; R&D systems, Cat #119-BP) were prepared in aMEM medium-1 ng/ml IL-12 containing 2 nM of each IL-18 variants and were added to the NK-92 cells. Final IL-18 analytes concentration was 1 nM and final IL-18BPa concentrations ranged from to 566 nM down to 17 pM.
After 16-20 h incubation at 37° C./5% CO2, 5 μl of supernatant were carefully transferred to a 384 microwells OPTIplate (Perkin Elmer; Cat #6007270) and Interferon-gamma (IFNγ) levels measured using the Human IFNγ AlphaLISA Assay Kit (Perkin Elmer, Cat #AL217C). Briefly, 10 μl of 2.5× AlphaLISA Anti-IFNγ acceptor beads and biotinylated Antibody Anti-IFNγ mix were added to the 5 μl of NK-92 supernatants and incubated for 1 h at room temperature under shaking. Under subdued light, 2.5 μl of 2× streptavidin (SA) donor beads were pipetted in each well and incubated for 30 min at room temperature under shaking. AlphaLisa signal was then measured on an Enspire plate reader (Perkin Elmer) using 680 and 615 nm as excitation and emission wavelengths respectively. Half maximal inhibitory concentration (IC50) was calculated based on a variable slope, four parameter analysis using GraphPad PRISM software.

[3] = tested on: parental PD-1 negative KG-1 cells; test: IFN gamma secretion assay in parental PD-1 negative KG-1 cells (Example 11); format: cell-based, human; conditions: IFNγ secretion, 20-24 h
Method: as §1, §2

Composition B: immunocytokine: Atezolizumab/Tecentriq (anti-PD-L1) conjugated to IL-18 polypeptide SEQ ID NO: 30
EC50 [1]: 0.0036 nM | IC50 [2]: > 1000 nM | EC50 [3]: 0.0016 nM
